Species on record: Rattus norvegicus
Test: DrugMatrix - Regimen: Daily Repeat
Format: toxicity, organism-based, Sprague-Dawley
Set-up: regimen Daily Repeat, gender Male, age 6-8 weeks
Details: in vivo, po, route oral GAVAGE, […]; for ABSOLUTE BASOPHIL / ABSOLUTE EOSINOPHIL / ABSOLUTE LYMPHOCYTE / ABSOLUTE MONOCYTE / ABSOLUTE SEGMENTED NEUTROPHIL / BASOPHIL / EOSINOPHIL / ERYTHROCYTE COUNT / HEMATOCRIT / HEMOGLOBIN / LEUKOCYTE COUNT / LYMPHOCYTE / MEAN CORPUSCULAR HEMOGLOBIN / MEAN CORPUSCULAR HEMOGLOBIN CONCENTRATION / MEAN CORPUSCULAR VOLUME / MONOCYTE / NEUTROPHIL / NUCLEATED RED BLOOD CELLS / PLATELET COUNT: tissue Blood; for ALANINE AMINOTRANSFERASE / ALBUMIN / ALKALINE PHOSPHATASE / ASPARTATE AMINOTRANSFERASE / BLOOD UREA NITROGEN / CARBON DIOXIDE / CHLORIDE / CHOLESTEROL / CREATINE PHOSPHOKINASE / CREATININE / GLUCOSE / LACTATE DEHYDROGENASE / LIPASE / PHOSPHORUS / POTASSIUM / SODIUM / TOTAL BILIRUBIN / TOTAL PROTEIN / URIC ACID: tissue Plasma
[1] = 0 mg/kg, 72 h, dose level Control, time 3 day
[2] = 0 mg/kg, 120 h, dose level Control, time 5 day
[3] = 50 mg/kg, 72 h, dose level Low, time 3 day

SMILES: Oc1ncnc2[nH]ncc12 [ALLOPURINOL]
- ABSOLUTE BASOPHIL [1]: 0 CELLS/uL
- ABSOLUTE EOSINOPHIL [1]: 0 CELLS/uL
- ABSOLUTE LYMPHOCYTE [1]: 14687.67 CELLS/uL
- ABSOLUTE MONOCYTE [1]: 164 CELLS/uL
- ABSOLUTE SEGMENTED NEUTROPHIL [1]: 1748.33 CELLS/uL
- BASOPHIL [1]: 0%
- EOSINOPHIL [1]: 0%
- ERYTHROCYTE COUNT [1]: 5.51 x10E6/uL
- HEMATOCRIT [1]: 33.68%
- HEMOGLOBIN [1]: 13.4 G/DL
- LEUKOCYTE COUNT [1]: 16.6 x10E3/uL
- LYMPHOCYTE [1]: 88.83%
- MEAN CORPUSCULAR HEMOGLOBIN [1]: 24.47 pg
- MEAN CORPUSCULAR HEMOGLOBIN CONCENTRATION [1]: 39.82 G/DL
- MEAN CORPUSCULAR VOLUME [1]: 61.23 fL
- MONOCYTE [1]: 0.83%
- NEUTROPHIL [1]: 10.33%
- NUCLEATED RED BLOOD CELLS [1]: 0 /100WBC
- PLATELET COUNT [1]: 1329.67 x10E3/uL
- ALANINE AMINOTRANSFERASE [1]: 61.33 u/L
- ALBUMIN [1]: 4.18 G/DL
- ALKALINE PHOSPHATASE [1]: 332.5 u/L
- ASPARTATE AMINOTRANSFERASE [1]: 98.33 u/L
- BLOOD UREA NITROGEN [1]: 15.83 mg/dL
- CARBON DIOXIDE [1]: 27.83 mmol/L
- CHLORIDE [1]: 100 MEQ/L
- CHOLESTEROL [1]: 76.17 mg/dL
- CREATINE PHOSPHOKINASE [1]: 729.17 u/L
- CREATININE [1]: 0.21 mg/dL
- GLUCOSE [1]: 151.83 mg/dL
- LACTATE DEHYDROGENASE [1]: 484.67 u/L
- LIPASE [1]: 10 u/L
- PHOSPHORUS [1]: 11.3 mg/dL
- POTASSIUM [1]: 6.1 MEQ/L
- SODIUM [1]: 142.9 MEQ/L
- TOTAL BILIRUBIN [1]: 0.23 mg/dL
- TOTAL PROTEIN [1]: 5.68 G/DL
- URIC ACID [1]: 1.75 mg/dL
- ABSOLUTE BASOPHIL [2]: 0 CELLS/uL
- ABSOLUTE EOSINOPHIL [2]: 58.67 CELLS/uL
- ABSOLUTE LYMPHOCYTE [2]: 15950.83 CELLS/uL
- ABSOLUTE MONOCYTE [2]: 172.5 CELLS/uL
- ABSOLUTE SEGMENTED NEUTROPHIL [2]: 2551.33 CELLS/uL
- BASOPHIL [2]: 0%
- EOSINOPHIL [2]: 0.33%
- ERYTHROCYTE COUNT [2]: 5.5 x10E6/uL
- HEMATOCRIT [2]: 34.05%
- HEMOGLOBIN [2]: 13.42 G/DL
- LEUKOCYTE COUNT [2]: 18.73 x10E3/uL
- LYMPHOCYTE [2]: 84.5%
- MEAN CORPUSCULAR HEMOGLOBIN [2]: 24.42 pg
- MEAN CORPUSCULAR HEMOGLOBIN CONCENTRATION [2]: 39.42 G/DL
- MEAN CORPUSCULAR VOLUME [2]: 61.97 fL
- MONOCYTE [2]: 1%
- NEUTROPHIL [2]: 14.17%
- NUCLEATED RED BLOOD CELLS [2]: 0.33 /100WBC
- PLATELET COUNT [2]: 1143.17 x10E3/uL
- ALANINE AMINOTRANSFERASE [2]: 57 u/L
- ALBUMIN [2]: 4.17 G/DL
- ALKALINE PHOSPHATASE [2]: 347.33 u/L
- ASPARTATE AMINOTRANSFERASE [2]: 93.67 u/L
- BLOOD UREA NITROGEN [2]: 15.67 mg/dL
- CARBON DIOXIDE [2]: 27.17 mmol/L
- CHLORIDE [2]: 104.33 MEQ/L
- CHOLESTEROL [2]: 69.5 mg/dL
- CREATINE PHOSPHOKINASE [2]: 317.17 u/L
- CREATININE [2]: 0.2 mg/dL
- GLUCOSE [2]: 162.33 mg/dL
- LACTATE DEHYDROGENASE [2]: 408.67 u/L
- LIPASE [2]: 10.17 u/L
- PHOSPHORUS [2]: 11.08 mg/dL
- POTASSIUM [2]: 6.36 MEQ/L
- SODIUM [2]: 146.07 MEQ/L
- TOTAL BILIRUBIN [2]: 0.22 mg/dL
- TOTAL PROTEIN [2]: 5.92 G/DL
- URIC ACID [2]: 1.47 mg/dL
- ABSOLUTE BASOPHIL [3]: 0 CELLS/uL
- ABSOLUTE EOSINOPHIL [3]: 127 CELLS/uL
- ABSOLUTE LYMPHOCYTE [3]: 14701 CELLS/uL
- ABSOLUTE MONOCYTE [3]: 340.67 CELLS/uL
- ABSOLUTE SEGMENTED NEUTROPHIL [3]: 1864.67 CELLS/uL
- BASOPHIL [3]: 0%
- EOSINOPHIL [3]: 1%
- ERYTHROCYTE COUNT [3]: 5.8 x10E6/uL
- HEMATOCRIT [3]: 35.57%
- HEMOGLOBIN [3]: 14.13 G/DL
- LEUKOCYTE COUNT [3]: 17.03 x10E3/uL
- LYMPHOCYTE [3]: 86.33%
- MEAN CORPUSCULAR HEMOGLOBIN [3]: 24.4 pg
- MEAN CORPUSCULAR HEMOGLOBIN CONCENTRATION [3]: 39.77 G/DL
- MEAN CORPUSCULAR VOLUME [3]: 61.43 fL
- MONOCYTE [3]: 2%
- NEUTROPHIL [3]: 10.67%
- NUCLEATED RED BLOOD CELLS [3]: 0 /100WBC
- PLATELET COUNT [3]: 1335 x10E3/uL
- ALANINE AMINOTRANSFERASE [3]: 47.67 u/L
- ALBUMIN [3]: 3.9 G/DL
- ALKALINE PHOSPHATASE [3]: 391.33 u/L
- ASPARTATE AMINOTRANSFERASE [3]: 101 u/L
- BLOOD UREA NITROGEN [3]: 54.33 mg/dL
- CARBON DIOXIDE [3]: 31.33 mmol/L
- CHLORIDE [3]: 101.67 MEQ/L
- CHOLESTEROL [3]: 88.33 mg/dL
- CREATINE PHOSPHOKINASE [3]: 732.33 u/L
- CREATININE [3]: 1.13 mg/dL
- GLUCOSE [3]: 142 mg/dL
- LACTATE DEHYDROGENASE [3]: 354.67 u/L
- LIPASE [3]: 10 u/L
- PHOSPHORUS [3]: 10.1 mg/dL
- POTASSIUM [3]: 6.99 MEQ/L
- SODIUM [3]: 146.8 MEQ/L
- TOTAL BILIRUBIN [3]: 0.2 mg/dL
- TOTAL PROTEIN [3]: 5.93 G/DL
- URIC ACID [3]: 0.2 mg/dL

Reference: ChEMBL document CHEMBL3885881, “DrugMatrix”
